Assays:
[1] = Stability test of complexed and uncomplexed potassium clavulanate in artificial gastric juice (pH 1.2, 37° C.); format: physicochemical
Protocol: Stability test of complexed and uncomplexed potassium clavulanate in artificial gastric juice (pH 1.2) at the temperature of 37° C.
For the test the following samples were used:
Medium: artificial gastric juice--aq. HCl/NaCl buffer, pH 1.2, according to USP XXII.
Concentration of clavulanic acid (abbr. KA) in samples: 4 mg/ml.
The samples 1 to 3 were dissolved under stirring in an artificial gastric juice (100 ml) thermostated at 37° C., at the concentration of 4 mg/ml with regard to the clavulanic acid. Subsequently, 100 μl aliquots were taken at 5 min intervals for analysis by the HPLC, until a more than 95% KA decomposition was found. The solution was stirred all the time at the temperature of 37° C. ±0.5° C.
Separately, a series of ten 10 ml aliquots of KA-TA-β-CD suspension in a buffer of a pH of 1.2 (cone. of KA=4 mg/ml), which were constantly stirred during thermostating at 37° C., was prepared. At time intervals of 5 to 10 min, the individual aliquots were filtered (membrane filter 0.4 μm) and in the clear filtrate the concentration of clavulanic acid was determined by HPLC. The KA content at times up to 90 min of thermostating was noted.
The results of measurements after 15, 30, 45, 60 and 90 min of thermostating the samples at 37° C. in a buffer at pH 1.2 are shown in following Table.

[2] = cited from earlier work
[3] = tested on: β-lactamases; settings: cited from earlier work
[4] = penicillinic and cephalosporin class; cited from earlier work

SMILES	time of 95% decomposition of clavulanic acid ([1]; conditions present in gastric juice, 37° C.)	solubility in water (in words) [2]	inhibition of β-lactamases (in words) [3]	effect in combination with β-lactam antibiotics [4]	remaining at 0.25 h ([1]; artificial gastric juice, 15 min thermostating, pH 1.2, 37° C., KA 4 mg/ml, read-out: KA (undecomp.) as to the initial KA conc. (100%) in samples)	remaining at 0.5 h ([1]; artificial gastric juice, 30 min thermostating, pH 1.2, 37° C., KA 4 mg/ml, read-out: KA (undecomp.) as to the initial KA conc. (100%) in samples)	remaining at 0.75 h ([1]; artificial gastric juice, 45 min thermostating, pH 1.2, 37° C., KA 4 mg/ml, read-out: KA (undecomp.) as to the initial KA conc. (100%) in samples)	time of 95% decomposition of clavulanic acid (t95%) ([1]; pH 1.2, 37° C. (FIG. 9))
O=C(O)[C@H]1/C(=C/CO)O[C@@H]2CC(=O)N21 [clavulanic acid, (2R,5R,Z)-3-(2-hydroxyethylidene)-7-oxo-4-oxa-1-azabicyclo[3.2.0]heptane-2-carboxylic acid]	26 min	very well soluble in water	inhibitors of β-lactamases	synergistic effect				
O=C(O)[C@H]1/C(=C/CO)O[C@@H]2CC(=O)N21 [KK, potassium clavulanate]					18.1%	1.3%	0%	26 min

Source: patent US5498788A, “Inclusion complexes of clavulanic acid and of potassium salts thereof with hydrophobic β-cyclodextrin derivatives a process for the preparation thereof” (LEK, tovarna farmacevtskih, priority 1992, dated 1996)
